Test results reported in patent US20220362267A1, “CAPACITATIVE CALCIUM ENTRY INHIBITORS” (UNIVERSITÉ PARIS-SACLAY, priority 2019, published 2022).

Tests used:
[1] = tested on: SOCE of Jurkat T cells; experiment: SOCE inhibition in thapsigargin-treated Jurkat cells (Indo-1 cytosolic calcium); format: cell-based; conditions: for Ki: SOCE, compound added 30 s before reintroduction of calcium; for concentration below which only SOCE is inhibited (no effect on SERCA and IP3R): selectivity versus SERCA and IP3R
Experimental: The Jurkat T lymphocyte line was mainly used for characterizing the effect of the molecules on SOCE. The Indo-1 ratiometric probe was used to visualize cytosolic calcium variations. For this, the cells in culture were centrifuged and then resuspended and incubated in PBS (Phosphate Buffered Saline) medium supplemented with 1 mg/ml of albumin and 4 μM of Indo-1-AM for 45 mim at ambient temperature and in the dark.
The SOCE phenomenon was evaluated conventionally. Jurkat cells were placed in calcium-free HBS medium and stimulated with 1 μM of thapsigargin (TG, arrow in FIG. 2A) for 600 s in order to allow calcium release from the ER and SOCC channel opening(=CRAC). The addition of 1 mM of CaCl2 to the medium allows massive calcium ion entry through the SOCCs and an increase in the concentration of cytosolic calcium ([Ca^2+]cyt).
The dose-response curves were established after addition of 2-APB or of an analog thereof 30 seconds before the reintroduction of calcium.

[2] = molecular target: T1, IP3R (Mus musculus, UniProt P11881); experiment: IP3-dependent 45Ca2+ release in permeabilized L15 cells; format: biochemical
T1 construct: expressed in transfected cells; host or cells: L15 cell line, permeabilized with saponin
T1 sequence (P11881 whole entry): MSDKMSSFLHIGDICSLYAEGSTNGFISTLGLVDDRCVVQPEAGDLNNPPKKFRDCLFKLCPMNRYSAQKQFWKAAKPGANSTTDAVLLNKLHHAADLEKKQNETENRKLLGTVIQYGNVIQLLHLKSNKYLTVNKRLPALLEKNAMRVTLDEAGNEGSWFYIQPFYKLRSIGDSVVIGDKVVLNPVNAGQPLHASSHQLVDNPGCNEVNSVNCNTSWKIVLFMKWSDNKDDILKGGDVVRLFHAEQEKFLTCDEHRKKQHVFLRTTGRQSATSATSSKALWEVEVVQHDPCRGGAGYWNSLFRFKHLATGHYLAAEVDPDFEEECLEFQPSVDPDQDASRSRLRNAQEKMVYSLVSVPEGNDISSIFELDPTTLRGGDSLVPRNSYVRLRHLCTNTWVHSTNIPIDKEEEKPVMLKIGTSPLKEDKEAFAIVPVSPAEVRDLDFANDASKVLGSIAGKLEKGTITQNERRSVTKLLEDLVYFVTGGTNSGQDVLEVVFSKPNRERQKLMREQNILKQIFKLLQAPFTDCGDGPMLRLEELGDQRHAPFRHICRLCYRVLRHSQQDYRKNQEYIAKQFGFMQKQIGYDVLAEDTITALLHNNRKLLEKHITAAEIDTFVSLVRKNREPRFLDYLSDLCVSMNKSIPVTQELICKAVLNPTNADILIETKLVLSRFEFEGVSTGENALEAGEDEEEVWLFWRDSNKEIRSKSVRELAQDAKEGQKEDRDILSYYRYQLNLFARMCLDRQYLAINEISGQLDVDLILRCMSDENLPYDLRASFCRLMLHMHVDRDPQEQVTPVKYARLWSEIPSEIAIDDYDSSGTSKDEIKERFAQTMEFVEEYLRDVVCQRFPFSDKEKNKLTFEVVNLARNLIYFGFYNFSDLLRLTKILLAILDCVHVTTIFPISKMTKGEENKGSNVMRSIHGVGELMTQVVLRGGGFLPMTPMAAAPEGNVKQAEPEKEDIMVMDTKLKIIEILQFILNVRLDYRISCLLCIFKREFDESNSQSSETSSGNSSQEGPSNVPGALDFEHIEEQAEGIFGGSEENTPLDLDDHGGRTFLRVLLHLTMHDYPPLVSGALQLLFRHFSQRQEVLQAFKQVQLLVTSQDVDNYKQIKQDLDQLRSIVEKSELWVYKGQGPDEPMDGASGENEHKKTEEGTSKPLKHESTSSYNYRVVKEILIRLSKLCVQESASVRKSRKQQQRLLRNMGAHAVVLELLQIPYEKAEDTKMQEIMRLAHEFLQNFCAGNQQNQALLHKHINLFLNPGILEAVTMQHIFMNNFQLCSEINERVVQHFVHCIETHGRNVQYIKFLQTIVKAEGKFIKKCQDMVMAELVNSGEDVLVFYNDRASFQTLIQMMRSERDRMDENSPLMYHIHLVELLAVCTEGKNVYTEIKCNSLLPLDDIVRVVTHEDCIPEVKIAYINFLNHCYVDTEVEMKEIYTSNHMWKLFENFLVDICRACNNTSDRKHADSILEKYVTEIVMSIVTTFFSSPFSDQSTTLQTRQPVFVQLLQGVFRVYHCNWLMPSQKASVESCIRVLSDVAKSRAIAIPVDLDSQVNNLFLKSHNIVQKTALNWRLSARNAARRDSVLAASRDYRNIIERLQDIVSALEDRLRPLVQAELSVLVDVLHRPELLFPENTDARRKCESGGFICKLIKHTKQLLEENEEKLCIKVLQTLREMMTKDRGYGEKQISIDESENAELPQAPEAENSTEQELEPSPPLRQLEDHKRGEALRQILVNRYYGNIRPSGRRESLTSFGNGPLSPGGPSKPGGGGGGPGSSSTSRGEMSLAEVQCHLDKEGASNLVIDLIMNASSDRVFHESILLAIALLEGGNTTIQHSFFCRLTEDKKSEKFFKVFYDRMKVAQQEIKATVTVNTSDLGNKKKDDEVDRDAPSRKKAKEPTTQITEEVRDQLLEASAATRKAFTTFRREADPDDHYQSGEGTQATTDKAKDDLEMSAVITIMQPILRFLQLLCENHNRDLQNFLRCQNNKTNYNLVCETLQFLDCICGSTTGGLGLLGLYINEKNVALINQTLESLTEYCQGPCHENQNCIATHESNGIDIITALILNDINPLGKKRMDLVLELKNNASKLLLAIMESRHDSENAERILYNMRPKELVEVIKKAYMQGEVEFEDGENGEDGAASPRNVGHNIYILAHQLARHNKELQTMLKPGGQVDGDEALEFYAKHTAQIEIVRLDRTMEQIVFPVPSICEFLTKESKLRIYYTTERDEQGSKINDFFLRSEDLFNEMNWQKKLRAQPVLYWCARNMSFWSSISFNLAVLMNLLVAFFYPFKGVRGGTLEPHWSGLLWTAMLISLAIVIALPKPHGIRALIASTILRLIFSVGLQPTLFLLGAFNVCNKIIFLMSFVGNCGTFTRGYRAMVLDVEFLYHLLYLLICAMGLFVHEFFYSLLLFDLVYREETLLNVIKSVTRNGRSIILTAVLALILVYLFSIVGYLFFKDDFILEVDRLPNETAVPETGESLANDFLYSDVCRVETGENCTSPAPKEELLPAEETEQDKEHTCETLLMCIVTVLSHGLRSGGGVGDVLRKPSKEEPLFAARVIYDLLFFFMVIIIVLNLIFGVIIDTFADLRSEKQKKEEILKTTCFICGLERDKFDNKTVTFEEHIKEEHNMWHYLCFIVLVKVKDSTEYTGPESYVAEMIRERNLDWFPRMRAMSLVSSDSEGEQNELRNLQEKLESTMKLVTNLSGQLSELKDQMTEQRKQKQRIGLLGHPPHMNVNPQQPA
Experimental: (§1) To test the selectivity of certain molecules on SOCE compared to IP3R and SERCA, the L15 line stably expressing type 1 IP3R was used. Briefly, the cells were permeabilized with saponin and incubated in the presence of ^45Ca^2+ in a medium containing ATP allowing SERCA activity and Ca' ion entry into the ER. The addition of TG makes it possible to induce release from the ER and therefore to measure the amount of Ca^2+ ions that have left the ER, which is itself directly linked to the SERCA activity. The addition of IP3 allows direct measurement of the amount of Ca' ions leaving the ER by IP3R opening.
(§2) The ^45Ca^2+ loading and IP3-dependent release measurements were carried out on permeabilized cells under one-way conditions.

[3] = tested on: SERCA; experiment: 45Ca2+ loading (SERCA activity) in permeabilized L15 cells; format: biochemical; conditions: for Ki: permeabilized cells
Experimental: as §1, §2

[4] = tested on: Orai1-SOCE in leukocytes; conditions: cited from earlier work
[5] = tested on: Mn2+ influx via the SOCCs; experiment: Mn2+ quenching of indo-1 in TG-treated Jurkat cells; format: cell-based; conditions: 1 μM
Experimental: In order to determine whether compound P11 has an action on SOCE and not on calcium efflux mechanisms, a quenching experiment with Mn^2+ was carried out by means of the indo-1 molecule. The Mn^2+ ions enter the cells via the SOCCs, but cannot be pumped into the extracellular membrane by the plasma membrane calcium-dependent ATPases (plasma membrane Ca^2+ ATPases, or PMCA) or the sodium/calcium exchanger (Na^+/Ca^2+ exchanger, or NCX) or sent back into the lumen of the ER by the sarcoplasmic-endoplasmic reticulum Ca^2+ ATPases (or SERCAs). Once in the cell, Mn^2+ binds to indo-1 and quenches its fluorescence measured at 430 nm. An increase in the amplitude of the Mn^2+ influx is therefore associated with an increase in the indo-1 quenching rate, and vice versa.
After 10 minutes of treatment with TG in order to open the SOCCs, 100 μM of MnCl2 were added. A degree of quenching of −0.89±0.05% Fo/s was observed (FIG. 3A). In the presence of increasing concentrations of P11 added 30 seconds before the addition of Mn^2+ ions, the degree of quenching decreased and reached a blocking of approximately 90% at 1 μM (−0.09±0.01, FIG. 3A).

[6] = tested on: SOCE in DG75 cells (B lymphocytes); experiment: SOCE inhibition in DG75 cells; format: cell-based
Experimental: (§3) The Jurkat T lymphocyte line was mainly used for characterizing the effect of the molecules on SOCE. The Indo-1 ratiometric probe was used to visualize cytosolic calcium variations. For this, the cells in culture were centrifuged and then resuspended and incubated in PBS (Phosphate Buffered Saline) medium supplemented with 1 mg/ml of albumin and 4 μM of Indo-1-AM for 45 mim at ambient temperature and in the dark. The cells were then again centrifuged and resuspended in the HBS (Hepes-Buffered Saline) recording medium having the composition (in mM): 135 mM NaCl, 5.9 mM KCl, 1.2 mM MgCl2, 11.6 mM Hepes, 11.5 mM glucose, pH adjusted to 7.3 with NaOH. 0.5 to 1 million cells are then placed in the cuvette of a Varian Cary Eclipse spectrofluorimeter and the Indo-1 probe is excited at 360 nm, with emission of fluorescence at 405 and 480 nm. The ratio of fluorescence at 405 and 480 nm is directly proportional to the [Ca^2+]cyt.
(§4) The lines of monocyte origin U937, B lymphocyte origin (DG75) and breast cancer origin (MDA-MB231) were also used with the same protocol.

[7] = tested on: SOCE in U937 cells (monocytes); experiment: SOCE inhibition in U937 cells; format: cell-based; conditions: FIG. 3B
Experimental: as §3, §4

[8] = tested on: SOCE in MDA-MB231 cells (hormone-independent breast cancer cells); experiment: SOCE inhibition in MDA-MB231 cells; format: cell-based; conditions: FIG. 3B
Experimental: as §3, §4

[9] = tested on: PHA-stimulated Jurkat cells; experiment: IL-2 synthesis by PHA-stimulated Jurkat cells (Elisa); format: cell-based
Experimental: In order to measure the interleukin-2 (IL-2) synthesis in 24 h after stimulation with 10 μg/ml of phytohemagglutinin (PHA) in the presence or absence of certain molecules, the Jurkat cells are centrifuged and the supernatant containing the IL-2 is collected. The 11-2 concentration is measured by Elisa (R&D systems kit).
The concentration of neosynthesized IL-2 was measured in the culture medium of phytohemagglutinin (PHA)-stimulated Jurkat cells after 24 h, in the presence of increasing concentrations of compound P11. […] Conversely, stimulation with PHA allows the detection of approximately 100 pg/ml of IL-2 (103 ±4 pg/ml, FIG. 5A). The addition of increasing concentrations of P11 at the same time as the stimulation by PHA leads to a gradual decrease in IL-2 synthesis to 26±6 pg/ml for 1 μM of P11 (-74%, FIG. 5B).

[10] = tested on: Jurkat cells; experiment: Cell death of Jurkat cells; format: cell-based
[11] = tested on: caspase-3 activity of Jurkat cells; experiment: Caspase-3 activity in Jurkat cells (Ac-DEVD-AFC substrate); format: cell-based
Experimental: The caspase-3 activity is measured with a fluorescent kit using the Ac-DEVD-AFC substrate. The Jurkat cells are incubated for 24 h with PHA in the presence or absence of certain molecules. The cells are then lyzed with RIPA medium, and the amounts of proteins are then measured with a commercial kit (Biorad). The cell lysates are then diluted in the following reaction medium: 200 mM Hepes, pH 7.4, 1 mM EDTA, 20% sucrose and 20 mM dithiothreitol, then incubated with 20 μM of the fluorogenic substrate for 45 min […] at 37° C. The appearance of the fluorescent AFC product is measured by spectrofluorimetry (excitation at 405 nm, emission at 505 nm).
(§5) The caspase-3 activity was then evaluated by means of an Ac-DEVD-AFC fluorogenic substrate, and apoptosis was evaluated by means of a TUNEL assay.

[12] = tested on: PHA-stimulated Jurkat cells; experiment: TUNEL assay of DNA fragmentation in PHA-stimulated Jurkat cells; format: cell-based; conditions: concentrations greater than 10 nM
Experimental: The Roche TUNEL kit was used to observe the nuclear DNA fragmentation and therefore cell apoptosis.
as §5

[13] = PHA, increasing amounts of P11, FIG. 5C

Cc1cccc(B(OCCN)c2cccc(C)c2)c1 [Compound P5]
Ki ([1]; Jurkat cells): 2100 ± 600 nM

Cc1ccc(B(OCCN)c2ccc(C)c(Cl)c2)cc1Cl [Compound P15]
Ki ([1]; Jurkat cells): 294 ± 74 nM

CC(C)(C)c1ccc(B(OCCN)c2ccc(C(C)(C)C)cc2)cc1 [Compound P9]
Ki ([1]; Jurkat cells): 641 ± 103 nM | concentration below which only SOCE is inhibited (no effect on SERCA and IP3R) [1]: Below 3 μM | inhibition of IP3R activity (in words) ([2]; FIG. 4): did not significantly inhibit | Ki [3]: 6000 ± 300 nM

NCCOB(c1ccccc1)c1ccccc1 [Compound 2-APB, 2-Aminoethoxydiphenyl borate, reference compound]
effect on calcium entry at 5 μM ([1]; Jurkat cells, 5 μM, FIG. 2A): high potentiation of calcium entry | effect on calcium entry at 50 μM ([1]; Jurkat cells, 50 μM, FIG. 2A): virtually total inhibition | concentration at which Orai1-SOCE is inhibited [4]: greater than 30 μM

COc1cccc(B(OCCN)c2cccc(OC)c2)c1 [Compound P4]
maximum inhibition of SOCE ([1]; Jurkat cells): 80% | Ki ([1]; Jurkat cells): 75000 ± 21000 nM

NCCOB(c1ccc(F)cc1)c1ccc(F)cc1 [Compound P14]
Ki ([1]; Jurkat cells): 5400 ± 300 nM

Cc1ccc(B(OCCN)c2ccc(C)c(C)c2)cc1C [Compound P7]
Ki ([1]; Jurkat cells): 751 ± 97 nM

NCCOB(c1ccc(Cl)cc1)c1ccc(Cl)cc1 [Compound P13]
Ki ([1]; Jurkat cells): 1840 ± 100 nM

Cc1ccc(B(OCCN)c2ccc(C)cc2)cc1 [Compound P3]
Ki ([1]; Jurkat cells): 3500 ± 600 nM

CC(C)(C)c1ccc(B(OCCN)c2ccc(C(C)(C)C)cc2)cc1 [Compound P8]
Ki ([1]; Jurkat cells): 350 ± 40 nM

NCCOB(c1ccc(-c2ccccc2)cc1)c1ccc(-c2ccccc2)cc1 [Compound P11, 2-(dibiphenyl-4-ylboryloxy)ethamine]
Ki ([1]; Jurkat cells): 75 ± 21 nM | concentration below which only SOCE is inhibited (no effect on SERCA and IP3R) [1]: less than 1 μM | blocking of Mn2+ quenching [5]: approximately 90% | degree of indo-1 quenching by Mn2+ ([5]; added 30 s before 100 μM MnCl2, after 10 min TG): −0.09±0.01 % Fo/s | Ki ([6]; DG75 cells (B lymphocytes), FIG. 3B): 32 ± 2 nM | concentration at which total inhibition of SOCE is achieved ([6]; FIG. 3B (other cell types: DG75, U937, MDA-MB231)): 100 nM | Ki [7]: 40 ± 5 nM | Ki [8]: 50 ± 5 nM | inhibition at 100 µM ([2]; 100 μM): 29 ± 9% | ratio Ki SERCA versus Ki SOCE ([3]; SERCA 7.4 μM vs SOCE 75 nM): 100 times | inhibition of SERCA ([3]; concentration greater than 30 μM): 89% | Ki [3]: 7400 nM | IL-2 concentration in culture medium ([9]; 1 μM with 10 μg/ml PHA, 24 h): 26 ± 6 pg/mL | change in IL-2 synthesis ([9]; 1 μM with PHA, 24 h): -74% | IL-2 synthesized by the remaining living cells [9, 13]: 39.2 ± 8.6 pg/mL | decrease of IL-2 synthesis capacity of remaining living cells [9, 13]: approximately 63% | percentage of dead cells ([10]; 1 μM combined with PHA): 33.2±1.3% | toxic effect on the cells, compound alone ([10]; without PHA): did not exhibit any toxic effect | caspase-3 activity ([11]; 1 μM with PHA, 24 h): 3332±113 AU | increase of caspase-3 activity (factor) ([11]; with PHA, from 10 nM, maximum effect): 3 | caspase-3 activity, compound alone ([11]; without PHA, up to 1 μM): does not induce an increase in caspase-3 activity | cells containing fragmented DNA [12]: 17.9±1.2% | fold increase in number of cells containing fragmented DNA [12]: 4.5 fold

COc1ccc(B(OCCN)c2ccc(OC)cc2)cc1 [Compound P2]
Ki ([1]; Jurkat cells): 3500 ± 650 nM
